# Laboratory results from patent publication US20160009693A1, “HERBICIDAL COMPOUNDS” (SYNGENTA LIMITED, priority 2013, published 2016).
# System: Amaranthus retoflexus (AMARE)
# Experiment: Herbicidal glasshouse test, pre-emergence, AMARE
# Assay type: in vivo
# Conditions: applied at 1000 g/h, evaluated after 13 days
# Summary of the method: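 Amaranthus retoflexus seeds were sown in pots of standard soil and kept one day in a glasshouse at 24/16° C. (day/night), 14 hours light and 65% humidity. They were then sprayed pre-emergence with the active ingredient in acetone/water (50:50) containing 0.5% Tween 20. Plants grew under the same conditions, watered twice daily, and percentage damage was scored after 13 days.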
row,SMILES,"PRE Application AMARE, percentage damage (five point scale)"
1,Cn1ncnc1NC(=O)c1nn(C)c(=O)n(-c2cccc(F)c2F)c1=O [Compound 5.002],5 (5=80-100%)
2,CCCCn1c(=O)c(C(=O)Nc2ncnn2C)nn(C)c1=O [Compound 5.003],5 (5=80-100%)
3,Cn1cnnc1NC(=O)c1nn(C)c(=O)n(-c2ccccc2)c1=O [Compound 6.001],5 (5=80-100%)
4,Cn1cnnc1NC(=O)c1nn(C)c(=O)n(-c2cccc(F)c2F)c1=O [Compound 6.002],5 (5=80-100%)
5,CCCCn1c(=O)c(C(=O)Nc2nncn2C)nn(C)c1=O [Compound 6.003],5 (5=80-100%)

# System: Alopecurus myosuroides (ALOMY)
# Experiment: Herbicidal glasshouse test, pre-emergence, ALOMY
# Assay type: in vivo
# Conditions: applied at 1000 g/h, evaluated after 13 days
row,SMILES,"PRE Application ALOMY, percentage damage (five point scale)"
1,Cn1ncnc1NC(=O)c1nn(C)c(=O)n(-c2cccc(F)c2F)c1=O [Compound 5.002],3 (3=40-59%)
2,CCCCn1c(=O)c(C(=O)Nc2ncnn2C)nn(C)c1=O [Compound 5.003],1 (1=0-19%)
3,Cn1cnnc1NC(=O)c1nn(C)c(=O)n(-c2ccccc2)c1=O [Compound 6.001],1 (1=0-19%)
4,Cn1cnnc1NC(=O)c1nn(C)c(=O)n(-c2cccc(F)c2F)c1=O [Compound 6.002],2 (2=20-39%)
5,CCCCn1c(=O)c(C(=O)Nc2nncn2C)nn(C)c1=O [Compound 6.003],1 (1=0-19%)

# System: Ipomoea hederacea (IPOHE)
# Experiment: Herbicidal glasshouse test, post-emergence, IPOHE
# Assay type: in vivo
# Conditions: applied at 1000 g/h, evaluated after 13 days
row,SMILES,"POST Application IPOHE, percentage damage (five point scale)"
1,Cn1ncnc1NC(=O)c1nn(C)c(=O)n(-c2cccc(F)c2F)c1=O [Compound 5.002],5 (5=80-100%)
2,CCCCn1c(=O)c(C(=O)Nc2ncnn2C)nn(C)c1=O [Compound 5.003],4 (4=60-79%)
3,Cn1cnnc1NC(=O)c1nn(C)c(=O)n(-c2ccccc2)c1=O [Compound 6.001],5 (5=80-100%)
4,Cn1cnnc1NC(=O)c1nn(C)c(=O)n(-c2cccc(F)c2F)c1=O [Compound 6.002],5 (5=80-100%)
5,CCCCn1c(=O)c(C(=O)Nc2nncn2C)nn(C)c1=O [Compound 6.003],5 (5=80-100%)

# System: Solanum nigrum (SOLNI)
# Experiment: Herbicidal glasshouse test, pre-emergence, SOLNI
# Assay type: in vivo
# Conditions: applied at 1000 g/h, evaluated after 13 days
# Summary of the method: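 Seeds of Solanum nigrum were sown in pots of standard soil and kept one day in a glasshouse at 24/16° C. day/night, 14 hours light and 65% humidity. For the pre-emergence treatment they were then sprayed with an aqueous solution of the active ingredient formulated in acetone/water (50:50) containing 0.5% Tween 20. Plant damage was rated after 13 days.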
row,SMILES,"PRE Application SOLNI, percentage damage (five point scale)"
1,Cn1ncnc1NC(=O)c1nn(C)c(=O)n(-c2cccc(F)c2F)c1=O [Compound 5.002],5 (5=80-100%)
2,CCCCn1c(=O)c(C(=O)Nc2ncnn2C)nn(C)c1=O [Compound 5.003],5 (5=80-100%)
3,Cn1cnnc1NC(=O)c1nn(C)c(=O)n(-c2ccccc2)c1=O [Compound 6.001],5 (5=80-100%)
4,Cn1cnnc1NC(=O)c1nn(C)c(=O)n(-c2cccc(F)c2F)c1=O [Compound 6.002],5 (5=80-100%)
5,CCCCn1c(=O)c(C(=O)Nc2nncn2C)nn(C)c1=O [Compound 6.003],5 (5=80-100%)

# System: Amaranthus retoflexus (AMARE)
# Experiment: Herbicidal glasshouse test, post-emergence, AMARE
# Assay type: in vivo
# Conditions: applied at 1000 g/h, evaluated after 13 days
# Summary of the method: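 Amaranthus retoflexus (AMARE) seeds were sown in pots of standard soil and grown in a glasshouse at 24/16° C. day/night, 14 hours light and 65% humidity for 8 days. The plants were then sprayed post-emergence with an aqueous solution of the active ingredient in acetone/water (50:50) with 0.5% Tween 20. Damage was scored after 13 days.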
row,SMILES,"POST Application AMARE, percentage damage (five point scale)"
1,Cn1ncnc1NC(=O)c1nn(C)c(=O)n(-c2cccc(F)c2F)c1=O [Compound 5.002],5 (5=80-100%)
2,CCCCn1c(=O)c(C(=O)Nc2ncnn2C)nn(C)c1=O [Compound 5.003],5 (5=80-100%)
3,Cn1cnnc1NC(=O)c1nn(C)c(=O)n(-c2ccccc2)c1=O [Compound 6.001],5 (5=80-100%)
4,Cn1cnnc1NC(=O)c1nn(C)c(=O)n(-c2cccc(F)c2F)c1=O [Compound 6.002],5 (5=80-100%)
5,CCCCn1c(=O)c(C(=O)Nc2nncn2C)nn(C)c1=O [Compound 6.003],5 (5=80-100%)

# System: Echinochloa crus-galli (ECHCG)
# Experiment: Herbicidal glasshouse test, pre-emergence, ECHCG
# Assay type: in vivo
# Conditions: applied at 1000 g/h, evaluated after 13 days
# Summary of the method: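 Echinochloa crus-galli seeds were sown in standard soil in pots and grown for one day in a glasshouse at 24/16° C. day/night, 14 hours light and 65% humidity. Pre-emergence spraying used an aqueous solution of the active ingredient in acetone/water (50:50) with 0.5% Tween 20. Damage was scored after 13 days on a five point scale.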
row,SMILES,"PRE Application ECHCG, percentage damage (five point scale)"
1,Cn1ncnc1NC(=O)c1nn(C)c(=O)n(-c2cccc(F)c2F)c1=O [Compound 5.002],3 (3=40-59%)
2,CCCCn1c(=O)c(C(=O)Nc2ncnn2C)nn(C)c1=O [Compound 5.003],1 (1=0-19%)
3,Cn1cnnc1NC(=O)c1nn(C)c(=O)n(-c2ccccc2)c1=O [Compound 6.001],1 (1=0-19%)
4,Cn1cnnc1NC(=O)c1nn(C)c(=O)n(-c2cccc(F)c2F)c1=O [Compound 6.002],2 (2=20-39%)
5,CCCCn1c(=O)c(C(=O)Nc2nncn2C)nn(C)c1=O [Compound 6.003],4 (4=60-79%)

# System: Echinochloa crus-galli (ECHCG)
# Experiment: Herbicidal glasshouse test, post-emergence, ECHCG
# Assay type: in vivo
# Conditions: applied at 1000 g/h, evaluated after 13 days
# Summary of the method: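 Echinochloa crus-galli (ECHCG) seeds were sown in standard soil in pots and grown for 8 days in a glasshouse at 24/16° C. day/night, 14 hours light and 65% humidity. The young plants were then sprayed post-emergence with the active ingredient in acetone / water (50:50) containing 0.5% Tween 20. Damage was scored after 13 days.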
row,SMILES,"POST Application ECHCG, percentage damage (five point scale)"
1,Cn1ncnc1NC(=O)c1nn(C)c(=O)n(-c2cccc(F)c2F)c1=O [Compound 5.002],5 (5=80-100%)
2,CCCCn1c(=O)c(C(=O)Nc2ncnn2C)nn(C)c1=O [Compound 5.003],4 (4=60-79%)
3,Cn1cnnc1NC(=O)c1nn(C)c(=O)n(-c2ccccc2)c1=O [Compound 6.001],5 (5=80-100%)
4,Cn1cnnc1NC(=O)c1nn(C)c(=O)n(-c2cccc(F)c2F)c1=O [Compound 6.002],4 (4=60-79%)
5,CCCCn1c(=O)c(C(=O)Nc2nncn2C)nn(C)c1=O [Compound 6.003],1 (1=0-19%)

# System: Setaria faberi (SETFA)
# Experiment: Herbicidal glasshouse test, pre-emergence, SETFA
# Assay type: in vivo
# Conditions: applied at 1000 g/h, evaluated after 13 days
row,SMILES,"PRE Application SETFA, percentage damage (five point scale)"
1,Cn1ncnc1NC(=O)c1nn(C)c(=O)n(-c2cccc(F)c2F)c1=O [Compound 5.002],2 (2=20-39%)
2,CCCCn1c(=O)c(C(=O)Nc2ncnn2C)nn(C)c1=O [Compound 5.003],4 (4=60-79%)
3,Cn1cnnc1NC(=O)c1nn(C)c(=O)n(-c2ccccc2)c1=O [Compound 6.001],5 (5=80-100%)
4,Cn1cnnc1NC(=O)c1nn(C)c(=O)n(-c2cccc(F)c2F)c1=O [Compound 6.002],2 (2=20-39%)
5,CCCCn1c(=O)c(C(=O)Nc2nncn2C)nn(C)c1=O [Compound 6.003],5 (5=80-100%)

# System: Ipomoea hederacea (IPOHE)
# Experiment: Herbicidal glasshouse test, pre-emergence, IPOHE
# Assay type: in vivo
# Conditions: applied at 1000 g/h, evaluated after 13 days
row,SMILES,"PRE Application IPOHE, percentage damage (five point scale)"
1,Cn1ncnc1NC(=O)c1nn(C)c(=O)n(-c2cccc(F)c2F)c1=O [Compound 5.002],5 (5=80-100%)
2,CCCCn1c(=O)c(C(=O)Nc2ncnn2C)nn(C)c1=O [Compound 5.003],4 (4=60-79%)
3,Cn1cnnc1NC(=O)c1nn(C)c(=O)n(-c2ccccc2)c1=O [Compound 6.001],1 (1=0-19%)
4,Cn1cnnc1NC(=O)c1nn(C)c(=O)n(-c2cccc(F)c2F)c1=O [Compound 6.002],5 (5=80-100%)
5,CCCCn1c(=O)c(C(=O)Nc2nncn2C)nn(C)c1=O [Compound 6.003],5 (5=80-100%)

# System: Setaria faberi (SETFA)
# Experiment: Herbicidal glasshouse test, post-emergence, SETFA
# Assay type: in vivo
# Conditions: applied at 1000 g/h, evaluated after 13 days
# Summary of the method: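 Setaria faberi seeds were sown in standard soil in pots and grown for 8 days in a glasshouse at 24/16° C. day/night, 14 hours light and 65% humidity. The seedlings were then sprayed post-emergence with the active ingredient in acetone/water (50:50) containing 0.5% Tween 20. Afterwards they were kept under the same conditions, watered twice daily, and scored for percentage damage on a five point scale.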
row,SMILES,"POST Application SETFA, percentage damage (five point scale)"
1,Cn1ncnc1NC(=O)c1nn(C)c(=O)n(-c2cccc(F)c2F)c1=O [Compound 5.002],5 (5=80-100%)
2,CCCCn1c(=O)c(C(=O)Nc2ncnn2C)nn(C)c1=O [Compound 5.003],4 (4=60-79%)
3,Cn1cnnc1NC(=O)c1nn(C)c(=O)n(-c2ccccc2)c1=O [Compound 6.001],3 (3=40-59%)
4,Cn1cnnc1NC(=O)c1nn(C)c(=O)n(-c2cccc(F)c2F)c1=O [Compound 6.002],4 (4=60-79%)
5,CCCCn1c(=O)c(C(=O)Nc2nncn2C)nn(C)c1=O [Compound 6.003],2 (2=20-39%)

# System: Solanum nigrum (SOLNI)
# Experiment: Herbicidal glasshouse test, post-emergence, SOLNI
# Assay type: in vivo
# Conditions: applied at 1000 g/h, evaluated after 13 days
row,SMILES,"POST Application SOLNI, percentage damage (five point scale)"
1,Cn1ncnc1NC(=O)c1nn(C)c(=O)n(-c2cccc(F)c2F)c1=O [Compound 5.002],5 (5=80-100%)
2,CCCCn1c(=O)c(C(=O)Nc2ncnn2C)nn(C)c1=O [Compound 5.003],5 (5=80-100%)
3,Cn1cnnc1NC(=O)c1nn(C)c(=O)n(-c2ccccc2)c1=O [Compound 6.001],5 (5=80-100%)
4,Cn1cnnc1NC(=O)c1nn(C)c(=O)n(-c2cccc(F)c2F)c1=O [Compound 6.002],5 (5=80-100%)
5,CCCCn1c(=O)c(C(=O)Nc2nncn2C)nn(C)c1=O [Compound 6.003],4 (4=60-79%)

# System: Alopecurus myosuroides (ALOMY)
# Experiment: Herbicidal glasshouse test, post-emergence, ALOMY
# Assay type: in vivo
# Conditions: applied at 1000 g/h, evaluated after 13 days
row,SMILES,"POST Application ALOMY, percentage damage (five point scale)"
1,Cn1ncnc1NC(=O)c1nn(C)c(=O)n(-c2cccc(F)c2F)c1=O [Compound 5.002],5 (5=80-100%)
2,CCCCn1c(=O)c(C(=O)Nc2ncnn2C)nn(C)c1=O [Compound 5.003],3 (3=40-59%)
3,Cn1cnnc1NC(=O)c1nn(C)c(=O)n(-c2ccccc2)c1=O [Compound 6.001],3 (3=40-59%)
4,Cn1cnnc1NC(=O)c1nn(C)c(=O)n(-c2cccc(F)c2F)c1=O [Compound 6.002],4 (4=60-79%)
5,CCCCn1c(=O)c(C(=O)Nc2nncn2C)nn(C)c1=O [Compound 6.003],3 (3=40-59%)
